Organism: Rattus norvegicus
Assay: DrugMatrix - Regimen: Daily Repeat
Assay type: toxicity, organism-based, Sprague-Dawley
Set-up: regimen Daily Repeat, gender Male, age 6-8 weeks
Conditions: in vivo, sc, route subcutaneous, […]; for ABSOLUTE BASOPHIL / ABSOLUTE EOSINOPHIL / ABSOLUTE LYMPHOCYTE / ABSOLUTE MONOCYTE / ABSOLUTE SEGMENTED NEUTROPHIL / BASOPHIL / EOSINOPHIL / ERYTHROCYTE COUNT / HEMATOCRIT / HEMOGLOBIN / LEUKOCYTE COUNT / LYMPHOCYTE / MEAN CORPUSCULAR HEMOGLOBIN / MEAN CORPUSCULAR HEMOGLOBIN CONCENTRATION / MEAN CORPUSCULAR VOLUME / MONOCYTE / NEUTROPHIL / NUCLEATED RED BLOOD CELLS / PLATELET COUNT: tissue Blood; for ALANINE AMINOTRANSFERASE / ALBUMIN / ALKALINE PHOSPHATASE / ASPARTATE AMINOTRANSFERASE / BLOOD UREA NITROGEN / CARBON DIOXIDE / CHLORIDE / CHOLESTEROL / CREATINE PHOSPHOKINASE / CREATININE / GLUCOSE / LACTATE DEHYDROGENASE / LIPASE / PHOSPHORUS / POTASSIUM / SODIUM / TOTAL BILIRUBIN / TOTAL PROTEIN / URIC ACID: tissue Plasma
[1] = 15 mg/kg, 72 h, dose level Low, time 3 day
[2] = 15 mg/kg, 120 h, dose level Low, time 5 day
[3] = 750 mg/kg, 72 h, dose level High, time 3 day
[4] = 750 mg/kg, 120 h, dose level High, time 5 day

## CC=CC(=O)N(CC)c1ccccc1C
[1]
  ABSOLUTE BASOPHIL: 0 CELLS/uL
  ABSOLUTE EOSINOPHIL: 112 CELLS/uL
  ABSOLUTE LYMPHOCYTE: 10089.67 CELLS/uL
  ABSOLUTE MONOCYTE: 82.33 CELLS/uL
  ABSOLUTE SEGMENTED NEUTROPHIL: 1549.33 CELLS/uL
  BASOPHIL: 0%
  EOSINOPHIL: 1%
  ERYTHROCYTE COUNT: 5.39 x10E6/uL
  HEMATOCRIT: 34.37%
  HEMOGLOBIN: 13.8 G/DL
  LEUKOCYTE COUNT: 11.83 x10E3/uL
  LYMPHOCYTE: 86.33%
  MEAN CORPUSCULAR HEMOGLOBIN: 25.63 pg
  MEAN CORPUSCULAR HEMOGLOBIN CONCENTRATION: 40.2 G/DL
  MEAN CORPUSCULAR VOLUME: 63.7 fL
  MONOCYTE: 0.67%
  NEUTROPHIL: 12%
  NUCLEATED RED BLOOD CELLS: 0.33 /100WBC
  PLATELET COUNT: 1164.67 x10E3/uL
  ALANINE AMINOTRANSFERASE: 60.33 u/L
  ALBUMIN: 4.3 G/DL
  ALKALINE PHOSPHATASE: 309.33 u/L
  ASPARTATE AMINOTRANSFERASE: 90 u/L
  BLOOD UREA NITROGEN: 14.33 mg/dL
  CARBON DIOXIDE: 25.33 mmol/L
  CHLORIDE: 102 MEQ/L
  CHOLESTEROL: 88 mg/dL
  CREATINE PHOSPHOKINASE: 214.67 u/L
  CREATININE: 0.15 mg/dL
  GLUCOSE: 154.33 mg/dL
  LACTATE DEHYDROGENASE: 252.33 u/L
  LIPASE: 9 u/L
  PHOSPHORUS: 13.47 mg/dL
  POTASSIUM: 6.79 MEQ/L
  SODIUM: 146.9 MEQ/L
  TOTAL BILIRUBIN: 0.2 mg/dL
  TOTAL PROTEIN: 6 G/DL
  URIC ACID: 1.6 mg/dL
[2]
  ABSOLUTE BASOPHIL: 0 CELLS/uL
  ABSOLUTE EOSINOPHIL: 0 CELLS/uL
  ABSOLUTE LYMPHOCYTE: 9506.33 CELLS/uL
  ABSOLUTE MONOCYTE: 133 CELLS/uL
  ABSOLUTE SEGMENTED NEUTROPHIL: 1294 CELLS/uL
  BASOPHIL: 0%
  EOSINOPHIL: 0%
  ERYTHROCYTE COUNT: 5.45 x10E6/uL
  HEMATOCRIT: 35.03%
  HEMOGLOBIN: 13.53 G/DL
  LEUKOCYTE COUNT: 10.93 x10E3/uL
  LYMPHOCYTE: 87%
  MEAN CORPUSCULAR HEMOGLOBIN: 24.9 pg
  MEAN CORPUSCULAR HEMOGLOBIN CONCENTRATION: 38.67 G/DL
  MEAN CORPUSCULAR VOLUME: 64.33 fL
  MONOCYTE: 1.33%
  NEUTROPHIL: 11.67%
  NUCLEATED RED BLOOD CELLS: 2 /100WBC
  PLATELET COUNT: 1237.33 x10E3/uL
  ALANINE AMINOTRANSFERASE: 56 u/L
  ALBUMIN: 4.23 G/DL
  ALKALINE PHOSPHATASE: 398.67 u/L
  ASPARTATE AMINOTRANSFERASE: 78 u/L
  BLOOD UREA NITROGEN: 15 mg/dL
  CARBON DIOXIDE: 27 mmol/L
  CHLORIDE: 102.33 MEQ/L
  CHOLESTEROL: 73.67 mg/dL
  CREATINE PHOSPHOKINASE: 195.33 u/L
  CREATININE: 0.19 mg/dL
  GLUCOSE: 148.33 mg/dL
  LACTATE DEHYDROGENASE: 106 u/L
  LIPASE: 8.33 u/L
  PHOSPHORUS: 12.73 mg/dL
  POTASSIUM: 6.57 MEQ/L
  SODIUM: 147 MEQ/L
  TOTAL BILIRUBIN: 0.2 mg/dL
  TOTAL PROTEIN: 6.1 G/DL
  URIC ACID: 1.2 mg/dL
[3]
  ABSOLUTE BASOPHIL: 0 CELLS/uL
  ABSOLUTE EOSINOPHIL: 39 CELLS/uL
  ABSOLUTE LYMPHOCYTE: 11981 CELLS/uL
  ABSOLUTE MONOCYTE: 301 CELLS/uL
  ABSOLUTE SEGMENTED NEUTROPHIL: 1579 CELLS/uL
  BASOPHIL: 0%
  EOSINOPHIL: 0.33%
  ERYTHROCYTE COUNT: 5.38 x10E6/uL
  HEMATOCRIT: 34.23%
  HEMOGLOBIN: 13.3 G/DL
  LEUKOCYTE COUNT: 13.9 x10E3/uL
  LYMPHOCYTE: 85.67%
  MEAN CORPUSCULAR HEMOGLOBIN: 24.7 pg
  MEAN CORPUSCULAR HEMOGLOBIN CONCENTRATION: 38.83 G/DL
  MEAN CORPUSCULAR VOLUME: 63.7 fL
  MONOCYTE: 2.33%
  NEUTROPHIL: 11.67%
  NUCLEATED RED BLOOD CELLS: 1 /100WBC
  PLATELET COUNT: 1269.67 x10E3/uL
  ALANINE AMINOTRANSFERASE: 53.33 u/L
  ALBUMIN: 3.63 G/DL
  ALKALINE PHOSPHATASE: 412 u/L
  ASPARTATE AMINOTRANSFERASE: 76.33 u/L
  BLOOD UREA NITROGEN: 14.33 mg/dL
  CARBON DIOXIDE: 26 mmol/L
  CHLORIDE: 101.33 MEQ/L
  CHOLESTEROL: 93 mg/dL
  CREATINE PHOSPHOKINASE: 193.67 u/L
  CREATININE: 0.18 mg/dL
  GLUCOSE: 142.67 mg/dL
  LACTATE DEHYDROGENASE: 154 u/L
  LIPASE: 10.67 u/L
  PHOSPHORUS: 12.17 mg/dL
  POTASSIUM: 6.36 MEQ/L
  SODIUM: 144.1 MEQ/L
  TOTAL BILIRUBIN: 0.17 mg/dL
  TOTAL PROTEIN: 5.57 G/DL
  URIC ACID: 1.23 mg/dL
[4]
  ABSOLUTE BASOPHIL: 0 CELLS/uL
  ABSOLUTE EOSINOPHIL: 100.67 CELLS/uL
  ABSOLUTE LYMPHOCYTE: 12538 CELLS/uL
  ABSOLUTE MONOCYTE: 97.33 CELLS/uL
  ABSOLUTE SEGMENTED NEUTROPHIL: 1764 CELLS/uL
  BASOPHIL: 0%
  EOSINOPHIL: 0.67%
  ERYTHROCYTE COUNT: 4.84 x10E6/uL
  HEMATOCRIT: 29.03%
  HEMOGLOBIN: 11.63 G/DL
  LEUKOCYTE COUNT: 14.5 x10E3/uL
  LYMPHOCYTE: 86.67%
  MEAN CORPUSCULAR HEMOGLOBIN: 24.07 pg
  MEAN CORPUSCULAR HEMOGLOBIN CONCENTRATION: 40.13 G/DL
  MEAN CORPUSCULAR VOLUME: 60.03 fL
  MONOCYTE: 0.67%
  NEUTROPHIL: 12%
  NUCLEATED RED BLOOD CELLS: 0 /100WBC
  PLATELET COUNT: 1313.67 x10E3/uL
  ALANINE AMINOTRANSFERASE: 73.67 u/L
  ALBUMIN: 3.63 G/DL
  ALKALINE PHOSPHATASE: 318 u/L
  ASPARTATE AMINOTRANSFERASE: 113.67 u/L
  BLOOD UREA NITROGEN: 18 mg/dL
  CARBON DIOXIDE: 29.33 mmol/L
  CHLORIDE: 98.67 MEQ/L
  CHOLESTEROL: 97.33 mg/dL
  CREATINE PHOSPHOKINASE: 403.33 u/L
  CREATININE: 0.19 mg/dL
  GLUCOSE: 144 mg/dL
  LACTATE DEHYDROGENASE: 612.33 u/L
  LIPASE: 10.67 u/L
  PHOSPHORUS: 13.33 mg/dL
  POTASSIUM: 5 MEQ/L
  SODIUM: 136.53 MEQ/L
  TOTAL BILIRUBIN: 0.1 mg/dL
  TOTAL PROTEIN: 5.57 G/DL
  URIC ACID: 1.7 mg/dL
